According to patent US11485751B2, “Apramycin derivatives” (WAYNE STATE UNIVERSITY, priority 2017, dated 2022):
Converted amounts (≈) assume the structure as drawn.

Legend:
[1] = system: WT clinical isolates; experiment: MIC broth microdilution, WT; format: cell-based; settings: wild type
Description: (§1) Minimal inhibitory concentrations (MIC) have been determined by broth microdilution assays (CLSI. Methods for Dilution Antimicrobial Susceptibility Tests for Bacteria That Grow Aerobically; Approved Standard—Tenth Edition. CLSI document M07-A10. Wayne, Pa.: Clinical and Laboratory Standards Institute; 2015.).
(§2) Minimal inhibitory concentrations (MICs, […]) against clinical isolates from Institute of Medical Microbiology, Univ. Zurich, and the IC50 values for bacterial, human mitochondrial and human cytosolic ribosomes are indicated.
(§3) Minimal inhibitory concentrations (μg/ml) against clinical isolates from Institute of Medical Microbiology, Univ. Zurich, and the IC50 values for bacterial, human mitochondrial and human cytosolic ribosomes are indicated.
(§4) The Minimal inhibitory concentrations (MICs, μg/ml) against clinical isolates from Institute of Medical Microbiology, Univ Zurich, and the IC50 values for bacterial, human mitochondrial and human cytosolic ribosomes are indicated.

[2] = system: clinical isolates carrying AAC(3)-IV; experiment: MIC broth microdilution, AAC(3)-IV; format: cell-based; settings: clinical isolates, IMM Univ. Zurich, AAC(3)-IV
Description: as §1, §2, §3, §4

[3] = system: isolates carrying apmA; experiment: MIC broth microdilution, apmA; format: cell-based; settings: apmA resistance gene
Description: as §1, with “2015.). […]” for “2015.).”
as §3, §4

[4] = system: bacterial ribosomes; experiment: in-vitro translation assay, bacterial ribosomes; format: biochemical
Description: (§5) IC50 values for bacterial, human chimeric, and rabbit reticulocyte ribosomes have been determined by in-vitro translation assays as described previously (Proc. Nat. Ac. Sci USA 2012, 109(27):10984-10989).
as §2

[5] = system: human mitochondrial ribosomes; experiment: in-vitro translation assay, human mitochondrial (human chimeric) ribosomes; format: biochemical
Description: as §5, §2

[6] = system: human cytosolic ribosomes; experiment: in-vitro translation assay, human cytosolic ribosomes; format: biochemical
Description: as §5, §2

[7] = system: AG212, Escherichia coli ATCC25922; experiment: MIC reference strain AG212; format: cell-based; settings: reference strain ATCC25922
Description: as §1
(§6) Table 4 and 5 show the antibacterial activity of the compounds of the invention against bacterial reference strains (table 4) and against representative clinical isolates (table 5).
(§7) Legend to Tables: GEN, gentamicin; AMK, amikacin; PLZ, plazomicin; APR, apramycin; AG212, Escherichia coli ATCC25922; AG215, Klebsiella pneumonia; AG220, Pseudomonas aeruginosa ATCC27853; AG225, Acinetobacter baumannii pittii; AG290, Enterobacter cloacae; […], Mycobacterium smegmatis. MICs for AG192 have been determined in the presence of 0.5 μg/mL of ampicillin in the medium to mimic the synergistic effect of aminoglycoside and β-lactam antibiotics combination therapy in the treatment of Enterococcus infections in humans.

[8] = system: AG215, Klebsiella pneumonia; experiment: MIC reference strain AG215; format: cell-based; settings: reference strain
Description: as §1, §6, §7

[9] = system: AG290, Enterobacter cloacae; experiment: MIC reference strain AG290; format: cell-based; settings: reference strain
Description: as §1, §6, §7

[10] = system: AG220, Pseudomonas aeruginosa ATCC27853; experiment: MIC reference strain AG220; format: cell-based
Description: as §1, §6, §7

[11] = system: AG225, Acinetobacter baumannii pittii; experiment: MIC reference strain AG225; format: cell-based; settings: reference strain
Description: as §1, §6, §7

[12] = system: SZ380, Mycobacterium smegmatis; experiment: MIC reference strain SZ380; format: cell-based; settings: reference strain
Description: as §1, §6, §7

[13] = system: ATCC19977 M. abcessus; experiment: MIC reference strain ATCC19977; format: cell-based
Description: as §1, §6

[14] = system: AG001 E. coli WT; experiment: Antibacterial activity, clinical isolate AG001; format: cell-based; parameters: unit not given here
Description: as §1, §6

[15] = system: AG055 E. coli WT; experiment: Antibacterial activity, clinical isolate AG055; format: cell-based; parameters: unit not given here
Description: as §1, §6

[16] = system: AG003 E. coli AAC(3)-II; experiment: Antibacterial activity, clinical isolate AG003; format: cell-based
Description: as §1, §6

[17] = system: AG173 E. coli AAC(3)-IV; experiment: Antibacterial activity, clinical isolate AG173; format: cell-based
Description: as §1, §6

[18] = system: AG038 MRSA; experiment: Antibacterial activity, clinical isolate AG038; format: cell-based; parameters: unit not given here
Description: as §1, §6

[19] = system: AG039 MRSA AAC(6′)-I ANT(4′)-I; experiment: Antibacterial activity, clinical isolate AG039; format: cell-based
Description: as §1, §6

[20] = system: AG042 MRSA AAC(6′)-I ANT(4′)-I APH(2′); experiment: Antibacterial activity, clinical isolate AG042; format: cell-based; parameters: unit not given here
Description: as §1, §6

[21] = system: AG031 P. aer. APH(3′)-II; experiment: Antibacterial activity, clinical isolate AG031; format: cell-based; parameters: unit not given here
Description: as §1, §6

[22] = system: AG032 P. aer. APH(3′)-II; experiment: Antibacterial activity, clinical isolate AG032; format: cell-based; parameters: unit not given here
Description: as §1, §6

[23] = system: AG033 P. aer. APH(3′)-II AAC(6′)-I; experiment: Antibacterial activity, clinical isolate AG033; format: cell-based; parameters: unit not given here
Description: as §1, §6

[24] = system: Engineered E. coli pH430 WT; experiment: Activity, engineered E. coli pH430 WT; format: cell-based; settings: wild type
Description: as §1

[25] = system: Engineered E. coli AG103 armA; experiment: Activity against G1405-methylated 16S-rRNA, E. coli AG103 armA; format: cell-based
Description: as §1

[26] = system: Engineered E. coli pH424 armA; experiment: Activity against G1405-methylated 16S-rRNA, E. coli pH424 armA; format: cell-based
Description: as §1

[27] = system: Engineered E. coli pH425 rmtB; experiment: Activity against G1405-methylated 16S-rRNA, E. coli pH425 rmtB; format: cell-based
Description: as §1

[28] = system: Engineered E. coli pH426 rmtC; experiment: Activity against G1405-methylated 16S-rRNA, E. coli pH426 rmtC; format: cell-based
Description: as §1

[29] = system: Engineered E. coli pH427 rmtF; experiment: Activity against G1405-methylated 16S-rRNA, E. coli pH427 rmtF; format: cell-based
Description: as §1

Row | Structure (SMILES) | IC50 [4] [µM] | IC50 [5] [µM] | IC50 [6] [µM] | Antibacterial activity AG001 E. coli WT [14] | Antibacterial activity AG055 E. coli WT [15] | Antibacterial activity AG003 E. coli AAC(3)-II [16] | Antibacterial activity AG173 E. coli AAC(3)-IV [17] | Antibacterial activity AG038 MRSA [18] | Antibacterial activity AG039 MRSA AAC(6′)-I ANT(4′)-I [19] | Antibacterial activity AG042 MRSA AAC(6′)-I ANT(4′)-I APH(2′) [20] | Antibacterial activity AG031 P. aer. APH(3′)-II [21] | Antibacterial activity AG032 P. aer. APH(3′)-II [22] | Antibacterial activity AG033 P. aer. APH(3′)-II AAC(6′)-I [23] | Activity E. coli pH430 WT [24] | Activity E. coli AG103 armA [25] | Activity E. coli pH424 armA [26] | Activity E. coli pH425 rmtB [27] | Activity E. coli pH426 rmtC [28] | Activity E. coli pH427 rmtF [29] | further results
1 | CNC1C(OC2OC(CO)C(N)C(O)C2O)OC2CC(N)C(OC3CC(O)C(N)CC3N)OC2C1O (stereo not shown) [DC169, 5-Deoxy-apramycin] | 0.06 | 45 | 42 | 4 | 4 | 4 | 32 | 2-4 | 2 | 4 | 8 | 8 | 16 | 4 | 1 | 2 | 4 | 4 | 4 | MIC ([1]; read-out: MIC WT, clinical isolates, IMM Univ. Zurich): 4 µg/mL (≈ 7.64 µM); MIC ([2]; read-out: MIC AAC(3)-IV): > 32 µg/mL; MIC [3]: 16 µg/mL (≈ 30.6 µM); MIC ([7]; Escherichia coli, read-out: MIC AG212 E. coli): 4 µg/mL; MIC ([8]; Klebsiella pneumoniae, read-out: MIC AG215 K. pneumonia): 2 µg/mL; MIC ([9]; Enterobacter cloacae, read-out: MIC AG290 E. cloacae): 2 µg/mL; MIC ([10]; Pseudomonas aeruginosa, ATCC27853, reference strain ATCC27853, read-out: MIC AG220 P. aeruginosa): 4 µg/mL; MIC ([11]; Acinetobacter baumannii, read-out: MIC AG225 A. baumannii): 4 µg/mL; MIC ([12]; Mycolicibacterium smegmatis, read-out: MIC SZ380 M. smegmatis): 0.125 µg/mL; MIC ([13]; read-out: MIC ATCC19977 M. abcessus): 1 µg/mL (≈ 1.91 µM)
2 | CNC1C(OC2OC(CO)C(N)C(O)C2O)OC2CC(N)C(OC3C(N)CC(N)C(O)C3F)OC2C1O (stereo not drawn) [DC168, 5-Deoxy-5-epi-fluoro apramycin] | 0.05 | 30 | 28 | 8 | 4 | 4 | 128 | 2-4 | 2-4 | 4 | 8-16 | 8-16 | 32 | 2 | 1 | 2 | 2 | 2 | 2 | MIC WT ([1]; clinical isolates, IMM Univ. Zurich): 2 µg/mL (≈ 3.69 µM); MIC AAC(3)-IV [2]: >32 µg/mL; MIC apmA [3]: 4 µg/mL (≈ 7.39 µM); MIC AG212 E. coli [7]: 4 µg/mL; MIC AG215 K. pneumonia [8]: 1 µg/mL; MIC AG290 E. cloacae [9]: 4 µg/mL; MIC AG220 P. aeruginosa ([10]; reference strain ATCC27853): 4 µg/mL; MIC AG225 A. baumannii [11]: 4 µg/mL; MIC SZ380 M. smegmatis [12]: 0.125 µg/mL; MIC ATCC19977 M. abcessus ([13]; reference strain): 1 µg/mL (≈ 1.85 µM)
